Test results from patent publication US20230287003A1, “BCL6 INHIBITORS” (Cancer Research Technology Limited, priority 2018, published 2023).
pIC50: −log10 of the molar value.

Columns and labels:
[1] = molecular target: human BCL6 BTB domain (Trx-6×His-BCL6) / BCOR-AF633 peptide (Homo sapiens (Human), UniProt P41182); assay: HTRF assay; type: binding; conditions: 1 nM Trx-6×His-BCL6, 300 nM BCOR-AF633 peptide, 2 hours incubation
Procedure: The % inhibition at each concentration was calculated by normalising FRET ratio to the appropriate high (DMSO with all reagents) and low (DMSO without BCL6) controls.

[2] = molecular target: endogenous BCL6 protein in SUDHL-4 cells (Homo sapiens (Human), UniProt P41182); assay: Immunofluorescence-based BCL6 degradation assay (SUDHL4); type: cell-based; conditions: 2 hours with compound, DC50 = concentration at which 50% of endogenous BCL6 protein is degraded
Procedure: DC50 values (compound concentration at which 50% of endogenous BCL6 protein is degraded) were determined in SUDHL-4 cells (American Type Culture Collection) in an immunofluorescence-based assay using an InCell2200 high content imaging system (GE Healthcare). Briefly, 40 μL of lymphoma suspension cells cultured in RPMI 1640-10% FBS (Sigma-Aldrich or PAN Biotech UK Ltd) were platted on fibronectin (Sigma catalogue F1141)-coated 384 well Cell Carrier Ultra plate (Perkin Elmer catalogue 6057300) at 1.2 104 cells/well. After 20 hours cell culture at 37° C./CO2 incubator, compounds were dispensed in the cell culture plate using ECHO550 acoustic dispenser (Labcyte, Inc.), as 8 point-concentration response (ranging from 5 nM to 10 μM) in 0.67% final DMSO concentration. Cells were incubated with compound for 2 hours at 37° C./CO2 incubator followed by fixation in 4.5% formaldehyde (37% formaldehyde solution, Sigma catalogue F8775) at room temperature for 15 min. After fixing, cells were washed in 1×TBS (Tris Buffer Saline) using a Power Washer 384 (Tecan Group Ltd). Blocking and cell permeabilisation were performed by incubating the fixed cells for 1 hour at room temperature in 1×TBS, 5% BSA, 1% Triton X100, followed by three washes on PW384 plate washer. Primary and secondary antibodies were prepared in 1×TBS, 1% BSA, 0.2% Triton X100. BCL6 expression was detected by incubating the cells for 1 h 30 with BCL6 rabbit polyclonal antibody (Sigma Catalogue HPA004899) at 1:250, 0.8 μg/ml, followed by 1 hour in chicken anti-Rabbit Alexa 488 conjugated antibody (Life Technology) at 1:500. After incubation in each antibody, cells were washes four times in 1×TBS-0.05% tween on PW384 plate washer. Cells were finally incubated for 60 min with nuclear staining RedDot2 dye (Biotium) at 0.5× the stock concentration in 1×TBS. BCL6 expression in the absence or presence of compound was detected on InCell2200 with 20× objective and quantified on InCell Analyser 3.7.2 workstation (GE Healthcare). The % response at each concentration was calculated by normalising BCL6 expression in the presence of compound to the appropriate high (DMSO) and low (DMSO with 7 μM of a control compound (5-((5-chloro-2-((3R,5S)-4,4-difluoro-3,5-dimethylpiperidin-1-yl)pyrimidin-4-yl)amino)-3-(3-hydroxy-3-methylbutyl)-1-methyl-1,3-dihydro-2H-benzo[d]imidazol-2-one)) controls.

[3] = molecular target: BCL6-NCOR2(SMRT) corepressor protein-protein interaction (Homo sapiens (Human), UniProt P41182); assay: NanoBRET cell assay; type: cell-based; conditions: for IC50: read-out: NanoBRET cell avg pIC50 (converted)
Source text: At 20 hr post-transfection, cells were collected, washed with PBS, and exchanged into media containing phenol red-free OptiMEM+4% FBS (Life Technology).

Compound: C[C@@H]1CN(c2ncc(Cl)c(Nc3cnc4c(c3)c3c(c(=O)n4C)OCC[C@H](C4CC4)N3)n2)C[C@H](C)C1(F)F [Example 5t, (R)-10-((5-chloro-2-((3S,5R)-4,4-difluoro-3,5-dimethylpiperidin-1-yl)pyrimidin-4-yl)amino)-2-cyclopropyl-7-methyl-1,2,3,4-tetrahydro-[1,4]oxazepino[2,3-c][1,8]naphthyridin-6(7H)-one]
- HTRF avg pIC50 (1 nM) [1]: 6.61
- SUDHL4 avg pDC50 [2]: 6.54

Compound: (R)-10-((5-chloro-2-((3R,5S)-3-hydroxy-5- methylpiperidin-1-yl)pyrimidin-4-yl)amino)-2-cyclopropyl-7- methyl-1,2,3,4-tetrahydro-[1,4]oxazepino[2,3-c]quinolin-6(7H)-one or (R)-10-((5-chloro-2-((3S,5R)-3-hydroxy-5-methylpiperidin-1- yl)pyrimidin-4-yl)amino)-2-cyclopropyl-7-methyl-1,2,3,4-tetrahydro- [1,4]oxazepino[2,3-c]quinolin-6(7H)-one: formic acid (1:2) [Example 12c]
- HTRF avg pIC50 (1 nM) [1]: 8.01
- SUDHL4 avg pDC50 [2]: 7.83

Compound: C[C@@H]1C[C@H](C)CN(c2ncc(Cl)c(Nc3ccc4c(c3)c3c(c(=O)n4C)OCC[C@H](C)N3)n2)C1 [Example 5e, (S)-10-((5-chloro-2-((3R,5S)-3,5-dimethylpiperidin-1-yl)pyrimidin-4-yl)amino)-2,7-dimethyl-1,2,3,4-tetrahydro-[1,4]oxazepino[2,3-c]quinolin-6(7H)-one]
- HTRF avg pIC50 (1 nM) [1]: 6.18
- IC50 [3]: 5.25 µM
- SUDHL4 avg pDC50 [2]: 6.22

Compound: C[C@@H]1CN(c2ncc(Cl)c(Nc3ccc4c(c3)c3c(c(=O)n4C)OCC[C@H](C)N3)n2)C[C@H](C)C1(F)F [Example 5f, (S)-10-((5-chloro-2-((3S,5R)-4,4-difluoro-3,5-dimethylpiperidin-1-yl)pyrimidin-4-yl)amino)-2,7-dimethyl-1,2,3,4-tetrahydro-[1,4]oxazepino[2,3-c]quinolin-6(7H)-one]
- HTRF avg pIC50 (1 nM) [1]: 6.07
- IC50 [3]: 6.17 µM
- SUDHL4 avg pDC50 [2]: 6.63

Compound: Cn1c(=O)c2c(c3cc(Nc4nc(N5CCC(F)(F)CC5)ncc4Cl)ccc31)N[C@@H](C1CC1)CCO2 [Example 5m, (R)-10-((5-chloro-2-(4,4-difluoropiperidin-1-yl)pyrimidin-4-yl)amino)-2-cyclopropyl-7-methyl-1,2,3,4-tetrahydro-[1,4]oxazepino[2,3-c]quinolin-6(7H)-one]
- HTRF avg pIC50 (1 nM) [1]: 6.93
- SUDHL4 avg pDC50 [2]: 6.84

Compound: C[C@@H]1CN(c2ncc(Cl)c(Nc3ccc4c(c3)c3c(c(=O)n4C)C(=O)OC[C@H](C)N3)n2)C[C@H](C)C1(F)F [Example 8c, (S)-10-((5-chloro-2-((3S,5R)-4,4-difluoro-3,5-dimethylpiperidin-1-yl)pyrimidin-4-yl)amino)-2,7-dimethyl-2,3-dihydro-[1,4]oxazepino[6,5-c]quinoline-5,6(1H,7H)-dione]
- HTRF avg pIC50 (1 nM) [1]: 6.80
- IC50 [3]: 17.8 µM
- SUDHL4 avg pDC50 [2]: 6.78

Compound: C[C@@H]1CN(c2ncc(Cl)c(Nc3ccc4[nH]c(=O)c5c(c4c3)N[C@@H](C3CC3)CCO5)n2)C[C@H](C)C1(F)F [Example 5p, (R)-10-((5-chloro-2-((3S,5R)-4,4-difluoro-3,5-dimethylpiperidin-1-yl)pyrimidin-4-yl)amino)-2-cyclopropyl-1,2,3,4-tetrahydro-[1,4]oxazepino[2,3-c]quinolin-6(7H)-one]
- HTRF avg pIC50 (1 nM) [1]: 6.24
- SUDHL4 avg pDC50 [2]: 6.87

Compound: C[C@@H]1C[C@H](C)CN(c2ncc(Cl)c(Nc3ccc4c(c3)c3c(c(=O)n4C)C(=O)OC[C@H](C)N3)n2)C1 [Example 8g, (S)-10-((5-chloro-2-((3R,5S)-3,5-dimethylpiperidin-1-yl)pyrimidin-4-yl)amino)-2,7-dimethyl-2,3-dihydro-[1,4]oxazepino[6,5-c]quinoline-5,6(1H,7H)-dione]
- HTRF avg pIC50 (1 nM) [1]: 6.55
- IC50 [3]: 13.5 µM
- SUDHL4 avg pDC50 [2]: 6.50

Compound: C[C@@H]1CN(c2ncc(Cl)c(Nc3ccc4c(c3)c3c(c(=O)n4C)OCC[C@H](C4CC4)N3)n2)C[C@H](C)C1(F)F [Example 5i, (R)-10-((5-chloro-2-((3S,5R)-4,4-difluoro-3,5-dimethylpiperidin-1-yl)pyrimidin-4-yl)amino)-2-cyclopropyl-7-methyl-1,2,3,4-tetrahydro-[1,4]oxazepino[2,3-c]quinolin-6(7H)-one]
- HTRF avg pIC50 (1 nM) [1]: 6.70
- SUDHL4 avg pDC50 [2]: 6.79

Compound: Cn1c(=O)c2c(c3cc(Nc4nc(N5CC6CCC(C5)O6)ncc4Cl)ccc31)N[C@@H](C1CC1)C(F)(F)CO2 [Example 12u, (S)-10-((2-(8-oxa-3-azabicyclo[3.2.1]octan-3-yl)-5-chloropyrimidin-4-yl)amino)-2-cyclopropyl-3,3-difluoro-7-methyl-1,2,3,4-tetrahydro-[1,4]oxazepino[2,3-c]quinolin-6(7H)-one]
- pIC50 ([1]; HTRF avg pIC50 (1 nM)): 8.58
- NanoBRET cell avg pIC50 ([3]; HEK293T cells co-transfected with BCL6-nanoLuc and NCOR2-HaloTag, 6 hr incubation): 7.83
